Measurements: US5153183A, “Methylenediphosphonic acid compounds and methods of use for the treatment of rheumatism and osteophorosis” (Toray Industries, Inc., priority 1989, dated 1992)

What was measured:
Lewis female rat = experiment: Adjuvant arthritis test; type: in vivo; conditions: 50 mg/kg oral daily, 8th to 21st day after adjuvant injection, 6 cases; for Edema inhibiting rate against control group, +14 day, Left / Edema inhibiting rate against control group, +21 day, Left: left hindpaw (injected); for Edema inhibiting rate against control group, +14 day, Left / Edema inhibiting rate against control group, +14 day, Right: day 14; for Edema inhibiting rate against control group, +21 day, Left / Edema inhibiting rate against control group, +21 day, Right: day 21; for Edema inhibiting rate against control group, +14 day, Right / Edema inhibiting rate against control group, +21 day, Right: right hindpaw; for Zonal bone damage inhibiting rate against control group, +22 day: soft X-ray of hindlegs, day 22
Method: When a Mycobacterium butyricum adjuvant is injected into a rat, there occurs polyarthritis similar to human rheumatoid arthritis. Using such an adjuvant arthritis model, the anti-inflammatory and anti-rheumatic effects of the compounds of the present invention and the reference were examined according to the following procedure.
0.1 mg of dry dead Mycobacterium butyricum was suspended in 0.1 ml of liquid paraffin, and the suspension was injected into the skin of the sole of the left hindpaw of a Lewis female rat, 7-weeks old. The compounds obtained in Examples 2 and 4 and Reference were respectively dissolved in sterilized distilled water and orally administered at a dose of 50 mg per kg of body weight every day for two weeks from the 8th to 21st day after adjuvant injection. The volumes of the left and right hindpaws were measured. Edema density was calculated according to the formula [formula] and the Edema inhibiting rate was obtained according to the formula [formula] with the results shown in Table 1.
On the 22nd day, the rats were sacrificed, and soft X-ray photos of the left and right hind-legs were taken, and, based on the soft X-ray photos, the extent of bone damage at 5 zones on the left and right hindlegs was evaluated in points of 5 ranks, and the total points were taken as the zonal bone damage index. Further, the zonal bone damage inhibiting rate was calculated according to the formula [formula] with the results shown in Table 1.
The results thus obtained had ** noted for those which were significant according to the Student t-test and Tukey multiple comparison method with a perilous rate p<0.02 against the control group having only the sterilized distilled water administered and * noted for those which were significant with a perilous rate p<0.05.

Acute toxicity test = type: in vivo, rat; conditions: rat, in vivo, iv, 14 days, distilled water
Method: (§1) Using female and male SD rats (5-week age), 6 rats per group, and a 10% aqueous solution of gum arabic for oral administration, and distilled water for intravenous administration as a solvent for the compound to be tested, mortality, during 14 days after administration were recorded, and the LD50 values were calculated according to the Miller and Tainter Method (1944).

SD rats = experiment: Acute toxicity test; type: in vivo, rat; conditions: 14 days, 20160 min
Method: as §1

osteoclasts = experiment: Bone resorption inhibition test; type: cell-based; conditions: Mus musculus, Osteoclast, 120 h, active-type vitamin D3 (10^-10 M), ivory lamella, 5 days, read-out: Bone resorption inhibiting rate against control group
Method: With an osteoclast fraction prepared from the hindleg of a mouse placed on a lamella of ivory and stimulated by active-type vitamin D3 there is an resorption lacuna produced on the surface of ivory due to the absorption activity of the osteoclast. Using this absorption model of the bone, the bone resorption inhibiting effect of the compound of the invention was examined according to the following procedure.
5 μl of a suspension of osteoclasts prepared from the hindleg of a mouse was placed on a lamella of ivory and cultured in 500 μl of a 5% calf serum α-added MEM medium containing active-type vitamin D3 (10^-10 M) and the compound of the present invention ([…] or 10^-5 M) for 5 days. After culturing, the osteoclasts were removed from the ivory lamella, and the ivory was stained. The total area of resorption lacunae which became obvious by staining was calculated through image analysis. The bone absorption inhibiting rate was calculated by the formula [formula]

[1] = Oral, Female SD rats, 10% gum arabic
[2] = Oral, Male SD rats, 10% gum arabic

SMILES | Edema inhibiting rate against control group, +14 day, Left (Lewis female rat) [%] | Edema inhibiting rate against control group, +21 day, Left (Lewis female rat) [%] | Edema inhibiting rate against control group, +14 day, Right (Lewis female rat) [%] | Edema inhibiting rate against control group, +21 day, Right (Lewis female rat) [%] | Zonal bone damage inhibiting rate against control group, +22 day (Lewis female rat) [%] | LD50 at 336 h (Acute toxicity test; Female SD rats) [mg/kg] | LD50 at 336 h (Acute toxicity test; Male SD rats) [mg/kg] | LD50 Values (SD rats; [1]) [mg/kg] | LD50 Values (SD rats; [2]) [mg/kg] | inhibition at 10 µM (osteoclasts; 10^-5 M) [%] | inhibition at 1 µM (osteoclasts; 10^-6 M) [%] | LD50 Values (SD rats; Intravenous, Female SD rats, distilled water) [mg/kg] | LD50 Values (SD rats; Intravenous, Male SD rats, distilled water) [mg/kg]
O=P(O)(O)C(Cc1ccc(O)cc1)P(=O)(O)O [Reference compound, 2-(4-hydroxyphenyl)ethylidene-1,1-diphosphonic acid, reference compound] | 4.4 | 0.9 | 7.9 | 6.9 | 0 | – | – | – | – | – | – | – | –
CC(C)(C)c1cc(SC(P(=O)(O)O)P(=O)(O)O)cc(C(C)(C)C)c1O [Example 2, (3,5-di-t-butyl-4-hydroxyphenylthio)methylenediphosphonic acid] | 29.2 | 33.8 | 39.7 | 30.4 | 32.5 | 29.8 | 45.2 | 616 | 652 | 86 | 48 | – | –
CC(C)(C)c1cc(CC(P(=O)(O)O)P(=O)(O)O)cc(C(C)(C)C)c1O [Example 4, 2-(3,5-di-t-butyl-4-hydroxyphenyl)ethylidene-1,1-di-phosphonic acid] | 2.6 | 9.7 | 31.6 | 21.6 | 29.4 | – | – | – | – | – | – | – | –
CC(C)(C)c1cc(SC(P(=O)(O)O)P(=O)(O)O)cc(C(C)(C)C)c1O [Example 8, Disodium(3,5-di-t-butyl-4-hydroxyphenylthio)methylenediphosphonate] | – | – | – | – | – | – | – | 1770 | 1871 | – | – | 35.7 | 48.2
